Reference: patent US10611750B2, “Tetrahydroquinoline compositions as bet bromodomain inhibitors” (FORMA Therapeutics, Inc., priority 2013, dated 2020)

Tests used:
[1] = target: T1, BRD4 Bromodomain 1 (BRD4 BD1) (Homo sapiens, UniProt O60885); assay: AlphaScreen binding assay, BRD4 BD1; conditions: His-tagged BRD4 BD1 50 nM, biotinylated H4 (1-21) K5/8/12/16 tetra-acetylated peptide 50 nM, compounds listed under IC50 range headings
T1 construct: 44-168 and BRD4 BD2
Experimental: The binding of Example compounds to BRD4 Bromodomain 1 and BRD4 Bromodomain 2 was assessed using 384-well AlphaScreen assay technology. His-epitope tagged BRD4 BD144-168 and BRD4 BD2333-460 were cloned, expressed, and purified to homogeneity. BRD4 BD1 and BRD4 BD2 binding and inhibition was assessed by monitoring the engagement of biotinylated Histone H4 (1-21) K5/8/12/16 tetra-acetylated peptide with the targets using the AlphaScreen technology (PerkinElmer). Specifically, in a 384-well black or white flat bottom plate, BRD4 BD1 (50 nM final) or BRD4 BD2 (100 nM final) was combined with peptide (50 nM final for BD1 or 100 nM final for BD2) in 50 mM HEPES (pH 7.3), 100 mM NaCl, 0.1% (w/v) BSA, and 0.01% (w/v) Triton X-100 either in the presence of DMSO (final 1.25% DMSO) or compound dilution series in DMSO. Alpha streptavidin donor beads and Nickel-chelate acceptor beads were added to a final concentration of 10 μg/ml each. After a minimum of 1 hour equilibration, plates were read on a BMG PHERAstar FS multi-label reader (BMG LabTech). The half maximal inhibitory concentration (IC50) values were calculated using IDBS Activity Base software with a four parameter logistic curve fit by the equation y=A+((B−A)/(1+((C/x)^D))), wherein A denotes the bottom plateau of the curve, B denotes the top plateau of the curve, C denotes the x value at the middle of the curve, D denotes the slope factor, x denotes the original known x values, and y denotes the original known y values. Data was fitted using the Levenburg Marquardt algorithm.

[2] = test system: acute myelocytic leukemia (AML) cell line MV4-11; assay: Oncology cell growth assay (3-day proliferation, CellTiter-Glo); type: cell-based; conditions: Homo sapiens, MV4-11, 72 h, MV4-11 cells, 3000 cells/well, compounds listed under IC50 range headings, read-out: MV411 IC50 (gIC50, inhibition of proliferation)
Experimental: The impact of Example compounds on cancer cell proliferation was determined using the acute myelocytic leukemia (AML) cell line MV4-11 (ATCC) in a 3-day proliferation assay. MV4-11 cells were maintained in RPMI 1640 media supplemented with 10% FBS at 37° C. and an atmosphere of 5% CO2. For compound testing, compound dilutions series were prepared in DMSO via a 3-fold serial dilution from 2 mM to 0.001 mM in 384-well white flat bottom plates. The final compound concentrations in the wells were 10, 3.3, 1.1, 0.37, 0.12, 0.041, 0.013 and 0.0045 μM. MV4-11 cells were plated at a density of 3000 cells/well in final volume of 50 μl culture media and incubated for 72 hours. […] Luminescent signal from the CellTiter-Glo assay was read on an EnVision multilabel plate reader (PerkinElmer). Values for the concentration that inhibited cell growth by 50% (gIC50) between the DMSO control and background control (no cells) were determined using IDBS Activity Base software with a four parameter logistic curve fit by the equation y=A+((B−A)/(1+((C/x)^D))), wherein A denotes the bottom plateau of the curve, B denotes the top plateau of the curve, C denotes the x value at the middle of the curve, D denotes the slope factor, x denotes the original known x values, and y denotes the original known y values. Data was fitted using the Levenburg Marquardt algorithm.

SMILES | IC50 [1] [nM] | IC50 [2] [nM]
CC(=O)N1c2c(F)cc(-c3cn(C)nn3)c(OC3CCC3)c2CC[C@@H]1C [I-126, (S)-1-(5-cyclobutoxy-8-fluoro-2-methyl-6-(1-methyl-1H-1,2,3-triazol-4-yl)-3,4-dihydroquinolin-1(2H)-yl)ethanone] | 1000 to 10000 | > 1000
C[C@H]1CCc2c(ccc(-c3nnc(N)s3)c2OC2CCC2)N1C(=O)C1CC1 [I-127, (S)-(6-(5-amino-1,3,4-thiadiazol-2-yl)-5-cyclobutoxy-2-methyl-3,4-dihydroquinolin-1(2H)-yl)(cyclopropyl)methanone] | 100 to 1000 | < 500
C[C@H]1CCc2c(ccc(-c3c[nH]nn3)c2OC2CCC2)N1C(=O)C1CC1 [I-128, (S)-(5-cyclobutoxy-2-methyl-6-(1H-1,2,3-triazol-4-yl)-3,4-dihydroquinolin-1(2H)-yl)(cyclopropyl)methanone] | 100 to 1000 | 500 to 1000
COC(=O)N1c2ccc(-c3csc(C(N)=O)n3)c(OC3CCC3)c2CC[C@@H]1C [I-129, (S)-methyl-6-(2-carbamoylthiazol-4-yl)-5-cyclobutoxy-2-methyl-3,4-dihydroquinoline-1(2H)-carboxylate] | 100 to 1000 | < 500
CNC(=O)c1nc(-c2ccc3c(c2OC2CCC2)CC[C@H](C)N3C(=O)OC)cs1 [I-130, (S)-methyl 5-cyclobutoxy-2-methyl-6-(2-(methylcarbamoyl)thiazol-4-yl)-3,4-dihydroquinoline-1(2H)-carboxylate] | 100 to 1000 | < 500
COC(=O)N1c2ccc(-c3csc(NC(C)=O)n3)c(OC3CCC3)c2CC[C@@H]1C [I-131, (S)-methyl 6-(2-acetamidothiazol-4-yl)-5-cyclobutoxy-2-methyl-3,4-dihydroquinoline-1(2H)-carboxylate] | 1000 to 10000 | 500 to 1000
C[C@H]1CCc2c(ccc(-c3cn(C)nn3)c2Oc2ccccc2C#N)N1C(=O)C1CC1 [I-154, (S)-2-(1-(cyclopropanecarbonyl)-2-methyl-6-(1-methyl-1H-1,2,3-triazol-4-yl)-1,2,3,4-tetrahydroquinolin-5-yloxy)benzonitrile] | 1000 to 10000 | < 500
COc1cccc(Oc2c(-c3cnn(C4CCNCC4)c3)ccc3c2CC[C@H](C)N3C(C)=O)c1 [I-156, (S)-1-(5-(3-methoxyphenoxy)-2-methyl-6-(1-(piperidin-4-yl)-1H-pyrazol-4-yl)-3,4-dihydroquinolin-1(2H)-yl)ethanone] | 100 to 1000 | < 500
C[C@H]1CCc2c(ccc(-c3cnn(C4CCNCC4)c3)c2Oc2ccccc2Cl)N1C(=O)C1CC1 [I-165, (S)-(5-(2-chlorophenoxy)-2-methyl-6-(1-(piperidin-4-yl)-1H-pyrazol-4-yl)-3,4-dihydroquinolin-1(2H)-yl)(cyclopropyl)methanone] | 100 to 1000 | < 500
C[C@H]1CCc2c(ccc(-c3cnn(C4CCNCC4)c3)c2Oc2cccc(F)c2)N1C(=O)C1CC1 [I-171, (S)-cyclopropyl(5-(3-fluorophenoxy)-2-methyl-6-(1-(piperidin-4-yl)-1H-pyrazol-4-yl)-3,4-dihydroquinolin-1(2H)-yl)methanone] | 100 to 1000 | < 500
C[C@H]1CCc2c(ccc(-c3cnn(C4CCNCC4)c3)c2Oc2ccc(F)c(F)c2)N1C(=O)C1CC1 [I-172, (S)-cyclopropyl(5-(3,4-difluorophenoxy)-2-methyl-6-(1-(piperidin-4-yl)-1H-pyrazol-4-yl)-3,4-dihydroquinolin-1(2H)-yl)methanone] | 100 to 1000 | < 500
C[C@H]1CCc2c(ccc(-c3cnn(C4CNC4)c3)c2Oc2cccc(F)c2)N1C(=O)C1CC1 [I-173, (S)-(6-(1-(azetidin-3-yl)-1H-pyrazol-4-yl)-5-(3-fluorophenoxy)-2-methyl-3,4-dihydroquinolin-1(2H)-yl)(cyclopropyl)methanone] | 100 to 1000 | < 500
C[C@H]1CCc2c(ccc(-c3cnn(C4CNC4)c3)c2Oc2ccc(F)c(F)c2)N1C(=O)C1CC1 [I-174, (S)-(6-(1-(azetidin-3-yl)-1H-pyrazol-4-yl)-5-(3,4-difluorophenoxy)-2-methyl-3,4-dihydroquinolin-1(2H)-yl)(cyclopropyl)methanone] | 100 to 1000 | < 500
C[C@H]1CCc2c(ccc(-c3cnn(C4CNC4)c3)c2Oc2ccccc2)N1C(=O)C1CC1 [I-175, (S)-(6-(1-(azetidin-3-yl)-1H-pyrazol-4-yl)-2-methyl-5-phenoxy-3,4-dihydroquinolin-1(2H)-yl)(cyclopropyl)methanone] | 100 to 1000 | < 500
COC(=O)N1c2ccc(-c3cnn(C4CCNCC4)c3)c(Oc3ccc(F)c(F)c3)c2CC[C@@H]1C [I-176, (S)-methyl 5-(3,4-difluorophenoxy)-2-methyl-6-(1-(piperidin-4-yl)-1H-pyrazol-4-yl)-3,4-dihydroquinoline-1(2H)-carboxylate] | 100 to 1000 | < 500
COC(=O)N1c2ccc(-c3cnn(C4CNC4)c3)c(Oc3cccc(Cl)c3)c2CC[C@@H]1C [I-177, (S)-methyl 6-(1-(azetidin-3-yl)-1H-pyrazol-4-yl)-5-(3-chlorophenoxy)-2-methyl-3,4-dihydroquinoline-1(2H)-carboxylate] | 100 to 1000 | < 500
C[C@H]1CCc2c(ccc(-c3cnn(C4CNC4)c3)c2Oc2cccc(Cl)c2)N1C(=O)C1CC1 [I-178, (S)-(6-(1-(azetidin-3-yl)-1H-pyrazol-4-yl)-5-(3-chlorophenoxy)-2-methyl-3,4-dihydroquinolin-1 (2H)-yl)(cyclopropyl)methanone] | 100 to 1000 | < 500
C[C@H]1CCc2c(ccc(-c3cnn(C4CCNCC4)c3)c2Oc2cccc(Cl)c2)N1C(=O)C1CC1 [I-179, (S)-(5-(3-chlorophenoxy)-2-methyl-6-(1-(piperidin-4-yl)-1H-pyrazol-4-yl)-3,4-dihydroquinolin-1 (2H)-yl)(cyclopropyl)methanone] | 100 to 1000 | < 500
COC(=O)N1c2ccc(-c3cnn(C4CNC4)c3)c(Oc3cc(F)cc(F)c3)c2CC[C@@H]1C [I-180, (S)-methyl 6-(1-(azetidin-3-yl)-1H-pyrazol-4-yl)-5-(3,5-difluorophenoxy)-2-methyl-3,4-dihydroquinoline-1(2H)-carboxylate] | 100 to 1000 | < 500
C[C@H]1CCc2c(ccc(-c3cnn(C4CNC4)c3)c2Oc2cc(F)cc(F)c2)N1C(=O)C1CC1 [I-181, (S)-(6-(1-(azetidin-3-yl)-1H-pyrazol-4-yl)-5-(3,5-difluorophenoxy)-2-methyl-3,4-dihydroquinolin-1(2H)-yl)(cyclopropyl)methanone] | 100 to 1000 | < 500
COC(=O)N1c2ccc(-c3cnn(C4CCNCC4)c3)c(Oc3cc(F)cc(F)c3)c2CC[C@@H]1C [I-182, (S)-methyl 5-(3,5-difluorophenoxy)-2-methyl-6-(1-(piperidin-4-yl)-1H-pyrazol-4-yl)-3,4-dihydroquinoline-1(2H)-carboxylate] | 100 to 1000 | < 500
C[C@H]1CCc2c(ccc(-c3cnn(C4CCNCC4)c3)c2Oc2cc(F)cc(F)c2)N1C(=O)C1CC1 [I-183, (S)-cyclopropyl(5-(3,5-difluorophenoxy)-2-methyl-6-(1-(piperidin-4-yl)-1H-pyrazol-4-yl)-3,4-dihydroquinolin-1(2H)-yl)methanone] | 100 to 1000 | < 500
C[C@H]1CCc2c(ccc(-c3nnc(N)s3)c2Oc2ccccc2)N1C(=O)C1CC1 [I-184, (S)-(6-(5-amino-1,3,4-thiadiazol-2-yl)-2-methyl-5-phenoxy-3,4-dihydroquinolin-1(2H)-yl)(cyclopropyl)methanone] | 100 to 1000 | < 500
